In brackets after ≈: the same amount, converted by molar mass.
Key:
MRSA 252 [1] = experiment: MIC, broth micro-dilution; format: cell-based, Staphylococcus aureus; conditions: Staphylococcus aureus, read-out: MIC
Outline: (§1)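 Broth micro-dilution followed CLSI 2017: 1:2 antibiotic dilutions in TSB were inoculated at 5×10^5 CFU/mL. OD was recorded every 12 min over 18 h at 37 °C, and MIC was derived from sigmoidal dose-response fits.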

MSSA 476 [2] = experiment: MIC, broth micro-dilution; format: cell-based, Staphylococcus aureus; conditions: Staphylococcus aureus, MSSA, read-out: MIC
Outline: as §1

MRSA 252 [3] = experiment: Disc diffusion (Kirby-Bauer), zone of inhibition; format: cell-based, Staphylococcus aureus; conditions: Staphylococcus aureus, 500 μg/mL, '/' = no zone, read-out: Zone of inhibition
Outline: (§2)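 Kirby-Bauer per CLSI 2017: 1 in 200 dilutions of overnight cultures (LB for Gram-negatives, TSB for Gram-positives) spread on Mueller-Hinton agar. Discs loaded with 50 μL antibiotic were added and plates incubated 24 h at 37 °C. Zone of inhibition recorded.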

MSSA 476 [4] = experiment: Disc diffusion (Kirby-Bauer), zone of inhibition; format: cell-based, Staphylococcus aureus; conditions: Staphylococcus aureus, 500 μg/mL, '/' = no zone, read-out: Zone of inhibition
Outline: as §2

Escherichia coli DH5α = experiment: Disc diffusion (Kirby-Bauer), zone of inhibition; format: cell-based; conditions: Escherichia coli DH5α; 500 μg/mL; '/' = no zone; read-out: Zone of inhibition
Outline: as §2

[5] = tested on: Staphylococcus aureus 15981; experiment: Disc diffusion (Kirby-Bauer), zone of inhibition; format: cell-based; conditions: Staphylococcus aureus 15981; 500 μg/mL; '/' = no zone; read-out: Zone of inhibition
Outline: as §2

[6] = tested on: various Staphylococcus aureus strains; experiment: Disc diffusion, Staphylococcus aureus strain study; format: cell-based; conditions: Staphylococcus aureus, 500 μg/mL
Outline: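 Kirby-Bauer disc diffusion on Mueller-Hinton agar spread with 1:200 dilution of overnight S. aureus cultures (TSB, 37 °C). Discs loaded with 50 μL of compound at 500 μg/mL; zone of inhibition recorded after 24 h at 37 °C.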

HEK293 cells = experiment: Cytotoxicity assay, resazurin (CO-ADD); conditions: for toxicity towards the HEK293 cell line (in words): set concentration of 32 μg/mL
Outline: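 HEK293 cells in DMEM with 10% FBS were exposed to compounds at a single concentration of 32 μg/mL for 20 h at 37° C, 5% CO2. Viability read by resazurin fluorescence (2.3 μg/mL final, 3 h; F560/590). CC50 from sigmoidal dose-response fitting.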

red blood cells = experiment: Hemolysis assay (CO-ADD); format: cell-based; conditions: 32 μg/mL highest concentration tested
Excerpt: A problem often encountered by emerging drugs is hemolysis, also known as drug-induced immune hemolytic anemia.

## [C-]#[N+]C=Cc1ccc(O)c(Br)c1 [Compound 14]
MRSA 252 [1]
  MIC: 44 µg/mL (≈ 196 µM)
MSSA 476 [2]
  MIC: 242 µg/mL (≈ 1080 µM)
MRSA 252 [3]
  zone of inhibition at 500 µg/mL: 24 mm
MSSA 476 [4]
  zone of inhibition at 500 µg/mL: 24 mm
Escherichia coli DH5α
  zone of inhibition at 500 µg/mL: 26 mm
[5]
  zone of inhibition at 500 µg/mL: 28 mm
[6]; strain ASARM 61
  zone of inhibition at 500 µg/mL: 22 mm
[6]; strain ASARM 70
  zone of inhibition at 500 µg/mL: 20 mm
[6]; strain ASARM 71
  zone of inhibition at 500 µg/mL: 22 mm
[6]; strain ASARM 72
  zone of inhibition at 500 µg/mL: 20 mm
[6]; strain ASARM 73
  zone of inhibition at 500 µg/mL: 20 mm
[6]; strain ASARM 75
  zone of inhibition at 500 µg/mL: 20 mm
[6]; strain ASARM 76
  zone of inhibition at 500 µg/mL: 22 mm
[6]; strain ASARM 77
  zone of inhibition at 500 µg/mL: 22 mm
[6]; strain ASARM 79
  zone of inhibition at 500 µg/mL: 24 mm
[6]; strain ASARM 80
  zone of inhibition at 500 µg/mL: 25 mm
[6]; strain EOE 3
  zone of inhibition at 500 µg/mL: 20 mm
[6]; strain EOE 23
  zone of inhibition at 500 µg/mL: 22 mm
[6]; strain EOE 30
  zone of inhibition at 500 µg/mL: 22 mm
[6]; strain EOE 35
  zone of inhibition at 500 µg/mL: 18 mm
[6]; strain EOE 41
  zone of inhibition at 500 µg/mL: 20 mm
[6]; strain EOE 42
  zone of inhibition at 500 µg/mL: 18 mm
[6]; strain EOE 45
  zone of inhibition at 500 µg/mL: 20 mm
[6]; strain EOE 52
  zone of inhibition at 500 µg/mL: 25 mm
[6]; strain EOE 54
  zone of inhibition at 500 µg/mL: 19 mm
[6]; strain EOE 57
  zone of inhibition at 500 µg/mL: 20 mm
[6]; strain S139_7_7
  zone of inhibition at 500 µg/mL: 20 mm
[6]; strain S197_1_1
  zone of inhibition at 500 µg/mL: 25 mm
[6]; strain S197_1_8
  zone of inhibition at 500 µg/mL: 22 mm
[6]; strain S197_1_9
  zone of inhibition at 500 µg/mL: 22 mm
[6]; strain S197_1_10
  zone of inhibition at 500 µg/mL: 22 mm
[6]; strain S295_1_1
  zone of inhibition at 500 µg/mL: 22 mm
[6]; strain S295_1_2
  zone of inhibition at 500 µg/mL: 14 mm
[6]; strain S295_1_3
  zone of inhibition at 500 µg/mL: 20 mm
[6]; strain S364_5_11
  zone of inhibition at 500 µg/mL: 24 mm
[6]; strain S364_5_12
  zone of inhibition at 500 µg/mL: 24 mm
[6]; strain Sa_TPS 3026
  zone of inhibition at 500 µg/mL: 16 mm
[6]; strain Sa_TPS 3072
  zone of inhibition at 500 µg/mL: 18 mm
[6]; strain Sa_TPS 3092
  zone of inhibition at 500 µg/mL: 24 mm
[6]; strain Sa_TPS 3097
  zone of inhibition at 500 µg/mL: 18 mm
[6]; strain Sa_TPS 3103
  zone of inhibition at 500 µg/mL: 26 mm
[6]; strain Sa_TPS 3104
  zone of inhibition at 500 µg/mL: 22 mm
[6]; strain Sa_TPS 3106
  zone of inhibition at 500 µg/mL: 20 mm
[6]; strain Sa_TPS 3118
  zone of inhibition at 500 µg/mL: 18 mm
[6]; strain Sa_TPS 3133
  zone of inhibition at 500 µg/mL: 18 mm
[6]; strain Sa_TPS 3134
  zone of inhibition at 500 µg/mL: 18 mm
[6]; strain USFL 008
  zone of inhibition at 500 µg/mL: 17 mm
[6]; strain USFL 009
  zone of inhibition at 500 µg/mL: 16 mm
[6]; strain USFL 012
  zone of inhibition at 500 µg/mL: 20 mm
[6]; strain USFL 016
  zone of inhibition at 500 µg/mL: 18 mm
[6]; strain USFL 018
  zone of inhibition at 500 µg/mL: 18 mm
[6]; strain USFL 020
  zone of inhibition at 500 µg/mL: 16 mm
[6]; strain USFL 021
  zone of inhibition at 500 µg/mL: 18 mm
[6]; strain USFL 028
  zone of inhibition at 500 µg/mL: 18 mm
[6]; strain USFL 035
  zone of inhibition at 500 µg/mL: 19 mm
[6]; strain USFL 054
  zone of inhibition at 500 µg/mL: 18 mm
HEK293 cells
  Concentration toxic to HEK 293 cells: >32000 ng/mL
  toxicity towards the HEK293 cell line (in words): no toxicity
Red blood cells
  Hemolytic activity (HC10): >32 µg/mL

## [C-]#[N+]/C=C/c1ccc(NC(C)=O)cc1/C=C/c1ccccc1 [Compound 41, N-(4-((E)-2-Isocyanovinyl)-3-((E)-styryl)phenyl)acetamide]
MRSA 252 [1]
  MIC: 6 µg/mL (≈ 20.8 µM)
MSSA 476 [2]
  MIC: 8 µg/mL (≈ 27.7 µM)
MRSA 252 [3]
  zone of inhibition at 500 µg/mL: 32 mm
MSSA 476 [4]
  zone of inhibition at 500 µg/mL: 34 mm
Escherichia coli DH5α
  zone of inhibition at 500 µg/mL: 20 mm
[5]
  zone of inhibition at 500 µg/mL: 34 mm
[6]; strain ASARM 61
  zone of inhibition at 500 µg/mL: 28 mm
[6]; strain ASARM 70
  zone of inhibition at 500 µg/mL: 32 mm
[6]; strain ASARM 71
  zone of inhibition at 500 µg/mL: 32 mm
[6]; strain ASARM 72
  zone of inhibition at 500 µg/mL: 30 mm
[6]; strain ASARM 73
  zone of inhibition at 500 µg/mL: 27 mm
[6]; strain ASARM 75
  zone of inhibition at 500 µg/mL: 26 mm
[6]; strain ASARM 76
  zone of inhibition at 500 µg/mL: 27 mm
[6]; strain ASARM 77
  zone of inhibition at 500 µg/mL: 25 mm
[6]; strain ASARM 79
  zone of inhibition at 500 µg/mL: 29 mm
[6]; strain ASARM 80
  zone of inhibition at 500 µg/mL: 30 mm
[6]; strain EOE 3
  zone of inhibition at 500 µg/mL: 26 mm
[6]; strain EOE 23
  zone of inhibition at 500 µg/mL: 26 mm
[6]; strain EOE 30
  zone of inhibition at 500 µg/mL: 30 mm
[6]; strain EOE 35
  zone of inhibition at 500 µg/mL: 28 mm
[6]; strain EOE 41
  zone of inhibition at 500 µg/mL: 26 mm
[6]; strain EOE 42
  zone of inhibition at 500 µg/mL: 30 mm
[6]; strain EOE 45
  zone of inhibition at 500 µg/mL: 30 mm
[6]; strain EOE 52
  zone of inhibition at 500 µg/mL: 28 mm
[6]; strain EOE 54
  zone of inhibition at 500 µg/mL: 26 mm
[6]; strain EOE 57
  zone of inhibition at 500 µg/mL: 30 mm
[6]; strain S139_7_7
  zone of inhibition at 500 µg/mL: 22 mm
[6]; strain S197_1_1
  zone of inhibition at 500 µg/mL: 32 mm
[6]; strain S197_1_8
  zone of inhibition at 500 µg/mL: 30 mm
[6]; strain S197_1_9
  zone of inhibition at 500 µg/mL: 32 mm
[6]; strain S197_1_10
  zone of inhibition at 500 µg/mL: 31 mm
[6]; strain S295_1_1
  zone of inhibition at 500 µg/mL: 29 mm
[6]; strain S295_1_2
  zone of inhibition at 500 µg/mL: 25 mm
[6]; strain S295_1_3
  zone of inhibition at 500 µg/mL: 27 mm
[6]; strain S364_5_11
  zone of inhibition at 500 µg/mL: 27 mm
[6]; strain S364_5_12
  zone of inhibition at 500 µg/mL: 28 mm
[6]; strain Sa_TPS 3026
  zone of inhibition at 500 µg/mL: 28 mm
[6]; strain Sa_TPS 3072
  zone of inhibition at 500 µg/mL: 26 mm
[6]; strain Sa_TPS 3092
  zone of inhibition at 500 µg/mL: 28 mm
[6]; strain Sa_TPS 3097
  zone of inhibition at 500 µg/mL: 28 mm
[6]; strain Sa_TPS 3103
  zone of inhibition at 500 µg/mL: 28 mm
[6]; strain Sa_TPS 3104
  zone of inhibition at 500 µg/mL: 28 mm
[6]; strain Sa_TPS 3106
  zone of inhibition at 500 µg/mL: 36 mm
[6]; strain Sa_TPS 3118
  zone of inhibition at 500 µg/mL: 32 mm
[6]; strain Sa_TPS 3133
  zone of inhibition at 500 µg/mL: 28 mm
[6]; strain Sa_TPS 3134
  zone of inhibition at 500 µg/mL: 26 mm
[6]; strain USFL 008
  zone of inhibition at 500 µg/mL: 28 mm
[6]; strain USFL 009
  zone of inhibition at 500 µg/mL: 27 mm
[6]; strain USFL 012
  zone of inhibition at 500 µg/mL: 32 mm
[6]; strain USFL 016
  zone of inhibition at 500 µg/mL: 29 mm
[6]; strain USFL 018
  zone of inhibition at 500 µg/mL: 32 mm
[6]; strain USFL 020
  zone of inhibition at 500 µg/mL: 28 mm
[6]; strain USFL 021
  zone of inhibition at 500 µg/mL: 29 mm
[6]; strain USFL 028
  zone of inhibition at 500 µg/mL: 29 mm
[6]; strain USFL 035
  zone of inhibition at 500 µg/mL: 30 mm
[6]; strain USFL 054
  zone of inhibition at 500 µg/mL: 30 mm
[6]; strain not given
  zone of inhibition at 500 µg/mL: 30 mm
HEK293 cells
  Concentration toxic to HEK 293 cells: >32000 ng/mL
  toxicity towards the HEK293 cell line (in words): no toxicity
Red blood cells
  Hemolytic activity (HC10): >32 µg/mL
